The results in this text go back to ChEMBL document CHEMBL4706757, “Novel Substituted Pyridazines as Splicing Modulators for Modulating Splicing of mRNA and Uses Thereof for Treating Diseases” (ACS Med Chem Lett, 2021).

One assay in a line: Modulation of HTT mRNA splicing in human GM04724 cells assessed as mHTT protein level incubated for 48 hrs by 2B7-MW1 assay. The format is cell-based. The conditions noted are these: GM04724, 48 h.
For orientation: EC50 means the concentration at which the effect is half-maximal. As to `C[C@@]12CCC[C@@](C)(N1)[C@H](F)[C@H](Oc1ccc(-c3ccc(-c4cn[nH]c4)cc3O)nn1)C2`, the EC50 was not above 10 pM.
As for `Cn1cc(-c2cc(O)c(-c3ccc(O[C@@H]4C[C@@H]5CCC[C@@H](N5)[C@@H]4F)nn3)cc2F)cn1`, the EC50 was not above 10 pM.
For `Oc1cc(-c2cn[nH]c2)c(F)cc1-c1ccc(O[C@@H]2C[C@@H]3CCC[C@@H](N3)[C@@H]2F)nn1`, the EC50 was not above 10 pM.
As to `Oc1cc(-c2cn[nH]c2)c(F)cc1-c1ccc(O[C@H]2C[C@H]3CCC[C@H](N3)[C@H]2F)nn1`, the EC50 was not above 10 pM.
Take `Oc1cc(-c2cn[nH]c2)ccc1-c1ccc(O[C@H]2C[C@H]3CCC[C@H](N3)[C@H]2F)nn1`: the EC50 was not above 10 pM.
As to `Oc1cc(-c2cn[nH]c2)ccc1-c1ccc(O[C@@H]2C[C@@H]3CCC[C@@H](N3)[C@@H]2F)nn1`, the EC50 is not above 10 pM.
Regarding `C[C@]12CCC[C@](C)(N1)[C@@H](F)[C@@H](Oc1ccc(-c3ccc(-c4cn[nH]c4)cc3O)nn1)C2`, the EC50 is not above 10 pM.
As for `Cn1cc(-c2cc(O)c(-c3ccc(O[C@H]4C[C@H]5CCC[C@H](N5)[C@H]4F)nn3)cc2F)cn1`, the EC50 was not above 10 pM.

A short description of the next assay: Modulation of HTT mRNA exon 49b splicing in human GM04724 cells incubated for 24 hrs by TaqMan qPCR analysis. In kind it is cell-based. The conditions noted are these: GM04724, 24 h. (Real-time PCR tracks product formation cycle by cycle.)
Take `C[C@@]12CCC[C@@](C)(N1)[C@H](F)[C@H](Oc1ccc(-c3ccc(-c4cn[nH]c4)cc3O)nn1)C2`: the EC50 was not above 10 pM.
Molecule `Cn1cc(-c2cc(O)c(-c3ccc(O[C@@H]4C[C@@H]5CCC[C@@H](N5)[C@@H]4F)nn3)cc2F)cn1` registered an EC50 not above 10 pM.
`Oc1cc(-c2cn[nH]c2)c(F)cc1-c1ccc(O[C@@H]2C[C@@H]3CCC[C@@H](N3)[C@@H]2F)nn1`: the EC50 was not above 10 pM.
For `Oc1cc(-c2cn[nH]c2)c(F)cc1-c1ccc(O[C@H]2C[C@H]3CCC[C@H](N3)[C@H]2F)nn1`, the EC50 is not above 10 pM.
Turning to `Oc1cc(-c2cn[nH]c2)ccc1-c1ccc(O[C@H]2C[C@H]3CCC[C@H](N3)[C@H]2F)nn1`, the EC50 is not above 10 pM.
For the molecule `Oc1cc(-c2cn[nH]c2)ccc1-c1ccc(O[C@@H]2C[C@@H]3CCC[C@@H](N3)[C@@H]2F)nn1`, the EC50 was not above 10 pM.
`C[C@]12CCC[C@](C)(N1)[C@@H](F)[C@@H](Oc1ccc(-c3ccc(-c4cn[nH]c4)cc3O)nn1)C2` gave an EC50 not above 10 pM.
In turn, `Cn1cc(-c2cc(O)c(-c3ccc(O[C@H]4C[C@H]5CCC[C@H](N5)[C@H]4F)nn3)cc2F)cn1` had an EC50 not above 10 pM.

The nature of the next assay: Modulation of HTT mRNA exon 49-50 splicing in human GM04724 cells incubated for 24 hrs by TaqMan qPCR analysis. The format is cell-based. The conditions noted are these: GM04724, 24 h.
`C[C@@]12CCC[C@@](C)(N1)[C@H](F)[C@H](Oc1ccc(-c3ccc(-c4cn[nH]c4)cc3O)nn1)C2` had an EC50 not above 10 pM.
The molecule `Cn1cc(-c2cc(O)c(-c3ccc(O[C@@H]4C[C@@H]5CCC[C@@H](N5)[C@@H]4F)nn3)cc2F)cn1` returned an EC50 not above 10 pM.
In turn, `Oc1cc(-c2cn[nH]c2)c(F)cc1-c1ccc(O[C@@H]2C[C@@H]3CCC[C@@H](N3)[C@@H]2F)nn1` returned an EC50 not above 10 pM.
In the case of `Oc1cc(-c2cn[nH]c2)c(F)cc1-c1ccc(O[C@H]2C[C@H]3CCC[C@H](N3)[C@H]2F)nn1`, the EC50 is not above 10 pM.
In turn, `Oc1cc(-c2cn[nH]c2)ccc1-c1ccc(O[C@H]2C[C@H]3CCC[C@H](N3)[C@H]2F)nn1` had an EC50 not above 10 pM.
The molecule `Oc1cc(-c2cn[nH]c2)ccc1-c1ccc(O[C@@H]2C[C@@H]3CCC[C@@H](N3)[C@@H]2F)nn1` yielded an EC50 not above 10 pM.
Regarding `C[C@]12CCC[C@](C)(N1)[C@@H](F)[C@@H](Oc1ccc(-c3ccc(-c4cn[nH]c4)cc3O)nn1)C2`, the EC50 is not above 10 pM.
Take `Cn1cc(-c2cc(O)c(-c3ccc(O[C@H]4C[C@H]5CCC[C@H](N5)[C@H]4F)nn3)cc2F)cn1`: the EC50 is not above 10 pM.
